A short description of data set [1]: siRNA / mRNA encapsulation rate of lipid nanoparticle (RiboGreen). In kind it is physicochemical. Particulars: mRNA encapsulation rate of lipid nanoparticle (Table 3). As for the experimental part:
The siRNA encapsulation rate and the mRNA encapsulation rate of the lipid nanoparticle were obtained as follows. First, a surfactant (Sigma-Aldrich, Triton (registered trademark), X-100 (reducing type)) was added to the lipid nanoparticle-containing solution to disrupt the lipid nanoparticle to release the encapsulated siRNA or mRNA. The amounts of the lipid nanoparticle-containing solution and the surfactant were adjusted such that the siRNA or the mRNA was 2 pmol and the surfactant was 1% in 40 μL of the solution after adding the surfactant to the lipid nanoparticle-containing solution. Next, the RiboGreen reagent (reagent that reacts with siRNA to emit fluorescence, manufactured by Thermo Fisher Scientific, Quant-iT (registered trademark) RiboGreen (registered trademark) RNA Assay Kit) was added to the solution, and the fluorescence intensity was measured under conditions of an excitation wavelength of 480 nm and a fluorescence wavelength of 520 nm with a fluorescence intensity meter (manufactured by TECAN, Infinite M200). Specifically, 75 μL of the RiboGreen reagent diluted to 1/2000 was added to a diluted solution obtained by adding 65 μL of citrate buffer to 10 μL of the solution, and the fluorescence intensity was measured. This makes it possible to relatively measure the total amount of the siRNA or the total amount of the mRNA present in the solution.
Subsequently, the RiboGreen reagent was added to the lipid nanoparticle-containing solution without adding a surfactant, and the fluorescence intensity was measured in the same manner with a fluorescence intensity meter. By not adding a surfactant, it is possible to relatively measure the amount of the siRNA or the mRNA free in the solution without being encapsulated in the lipid nanoparticle.
Then, the fluorescence intensity obtained from the solution to which the surfactant was added obtained as described above was fluorescence intensity a, and the fluorescence intensity thus obtained from the solution to which no surfactant was added obtained as described above was fluorescence intensity b, and according to the expression (a−b)/a×100, the siRNA encapsulation rate (%) or the mRNA encapsulation rate (%) of the lipid nanoparticle was obtained. Each of fluorescence intensity a and fluorescence intensity b is a value obtained by subtracting a blank from the arithmetic average value of the results of three measurements for each solution. The blank was measured by carrying out the same operation on a well containing water containing no cell or lipid nanoparticle.

Another data set relates to HEK293T cells. The experiment in a line: Evaluation of protein expression effect (luciferase luminescence), Cell experiment 2. In kind it is cell-based. The conditions noted are these: lipid nanoparticle containing mRNA, 100 ng mRNA/20 μL per well, 24 hours, amount of luminescence as index. The protocol: (§1) For lipids (Ia), (Ib), and (Ie) of Examples 1, 2, and 5, a cell experiment was carried out by using HEK293T cells and NIH3T3 cells in order to evaluate lipid nanoparticles encapsulating an mRNA. By transfecting the cells with lipid nanoparticles and measuring the amount of a predetermined protein produced, the performance of the lipid nanoparticles used can be evaluated. Hereinafter, the procedure of the cell experiment will be shown.
(§2) A. Seeding of Cells • (i) A liquid medium (DMEM High glucose, FBS+, P/S+) was temperature-controlled in an incubator set at 37° C. • (ii) A cryotube containing cells was taken out from a −80° C. freezer and thawed at once in the incubator set at 37° C. • (iii) A test tube was subjected to a centrifuge to precipitate the cells. • (iv) The supernatant was aspirated, and the liquid medium was added and gently tapped to disperse the cells. • (v) A small amount of the cells-dispersed liquid medium was collected, and the number of cells was observed and counted under a microscope. • (vi) The cells were seeded in three 24-well black plates such that the number of cells was 1×10^4 cells per well. The 24-well black plates were placed in an incubator, and the cells were cultured for 24 hours under conditions of 37° C. and 5% CO2.
(§3) B. Transfection • (i) A lipid nanoparticle-containing solution including an mRNA was concentrated such that the mRNA concentration was 100 ng/20 μL (=0.005 μg/μL). • (ii) A liquid medium (DMEM High glucose, FBS-, P/S-) and FBS were warmed to 37° C., required amounts of the liquid medium and FBS were mixed (FBS concentration of liquid medium at this time: 12.5%), and the prepared liquid medium was filter-sterilized through a 0.22 μm filter. • (iii) The liquid medium supernatant in the 24-well black plates in which the cells were cultured was aspirated and 80 μL per well of the prepared liquid medium was added. • (iv) 20 μL per well of RFW and the lipid nanoparticle-containing solution adjusted to the above concentration was added. • (v) The 24-well black plates were placed in an incubator, and the cells were cultured for 24 hours under conditions of 37° C. and 5% CO2.
(§4) C. Evaluation of Protein Expression Effect (Detection of Gaussia Luciferase (GLuc))
(§5) Evaluation of the protein expression effect was carried out by using Gaussia Luciferase Assay Kit manufactured by Thermo Scientific. • (i) The cells cultured in B. (v) above were taken out from the incubator and allowed to stand at room temperature. • (ii) 20 μL of the supernatant in the plates was collected and added to a fresh 96-well white plate. • (iii) 100× Coelenterazine and Gaussia Glow Assay Buffer attached to the kit were returned to room temperature and mixed at 1:100 to prepare a solution. The prepared solution was added to the supernatant at 50 μL per well by using a multipipette. • (iv) The plate was shielded from light with aluminum foil, allowed to stand for 10 minutes, and then measured for the amount of luminescence with a plate reader (manufactured by TECAN, Infinite M200) (measurement time: 2 seconds), and the protein expression level was calculated by using the resulting amount of luminescence as an index.

The next data set relates to NIH3T3 cells. The description is as above. The conditions noted are these: lipid nanoparticle containing mRNA, 100 ng mRNA/20 μL per well, 24 hours, amount of luminescence as index. In kind it is cell-based. The protocol: as §1, §2, §3, §4, §5
The subject of data set [2] is HEK293T cells and NIH3T3 cells. Description: Evaluation of toxicity (CellTiter-Fluor Cell Viability Assay, CTF). In kind it is cell-based. Particulars: lipid nanoparticle containing mRNA; number of surviving cells relative to cells without lipid nanoparticle set at 1; one rating per lipid, printed on the HEK293T line. As for the experimental part:
as §1
as §2, with “CO2. […]” for “CO2.”
D. Evaluation of Toxicity (CellTiter-Fluor (Registered Trademark) Cell Viability Assay) • (i) The CellTiter-Fluor (registered trademark) Cell Viability (CTF) Assay Reagent was completely thawed in a 37° C. water bath. • (ii) GF-AFC Substrate was uniformly mixed by using a vortex mixer. • (iii) The required amounts of Buffer and GF-AFC Substrate attached to the CTF Assay Reagent (Kit) were mixed at a mixing ratio of 10 mL:10 μL. • (iv) 100 μL per well of the mixed CTF Reagent mixture was added to a 24-well black plate containing the cells cultured in B. (v) above, and the plate was quickly shielded from light with aluminum foil, and then shaken on a plate shaker for 30 seconds. • (v) The plate was placed in an incubator, […], and the cells were cultured for 30 minutes under conditions of 37° C. and 5% CO2. • (vi) The fluorescence intensity was measured with a plate reader (excitation wavelength of 380 nm, fluorescence wavelength of 505 nm). Based on the obtained measurement results, the number of surviving cells was calculated with the fluorescence intensity of cells to which no lipid nanoparticle was added set at 1. […]

Data set [3] is described as follows: Measurement of particle size, polydispersity index and zeta potential of lipid nanoparticle (Zetasizer). In kind it is physicochemical. The protocol:
30 μL of each of the dialyzed lipid nanoparticle-containing solutions obtained by the above operation was measured out, 800 μL of ultrapure water was added to dilute the lipid nanoparticle-containing solution, and the diluted preparation solution was used to measure the particle size (nm) and the polydispersity index (PDI) by using a Zetasizer (manufactured by Malvern Panalytical, Zetasizer nano Ultra). The particle size was evaluated by Z-average in ultrapure water. The zeta potential was measured by using pH 7.4 Tris-HCl as a dilute solution.

On to `CCCCCCCCCCCOC(=O)CCCCCN(CCO)CCCCCCCC(=O)OC(CCCCCCCC)CCCCCCCC` [Reference Example 1, reference compound], for which the “Encapsulation rate (%)” value in data set [1] is 93%. The results for the Protein expression level with HEK293T cells and in the data set with NIH3T3 cells were 320,000 and 7,000, respectively. Further, the “CTF Assay” value in data set [2] was “⊚ (When the number of surviving cells was more than 0.80 and 1.00 or less, a rating of double-circle (excellent) was given)”. The same molecule yielded a PDI in data set [3] (lipid nanoparticle containing mRNA (Table 3)) of 0.232. Further, the “Zeta potential (mV)” value in data set [3] (lipid nanoparticle containing mRNA (Table 3), pH 7.4 Tris-HCl) is listed as −4.3 mV. Further, the “Particle size (nm)” value in data set [3] (lipid nanoparticle containing mRNA, main lipid/DPPC/cholesterol=45/10/45 (r1: r1/DSPC/cholesterol/PEG2000-DMG=50/10/38.5/1.5)) was 64.4 nm.

For the origin of these results see patent US20240148664A1, “LIPID AND COMPOSITION” (SOGO PHARMACEUTICAL CO., LTD., priority 2021, published 2024).
